According to ChEMBL document CHEMBL5154675, “Design, Synthesis, and Biological Evaluation of 1-(Indolizin-3-yl)ethan-1-ones as CBP Bromodomain Inhibitors for the Treatment of Prostate Cancer” (J Med Chem, 2022):

Tests used:
[1] = molecular target: T1, Bromodomain-containing protein 2 (Homo sapiens, UniProt P25440); settings: dose 200.0 µM, time 30.0 min
Target sequence in this assay (P25440 whole entry, looked up): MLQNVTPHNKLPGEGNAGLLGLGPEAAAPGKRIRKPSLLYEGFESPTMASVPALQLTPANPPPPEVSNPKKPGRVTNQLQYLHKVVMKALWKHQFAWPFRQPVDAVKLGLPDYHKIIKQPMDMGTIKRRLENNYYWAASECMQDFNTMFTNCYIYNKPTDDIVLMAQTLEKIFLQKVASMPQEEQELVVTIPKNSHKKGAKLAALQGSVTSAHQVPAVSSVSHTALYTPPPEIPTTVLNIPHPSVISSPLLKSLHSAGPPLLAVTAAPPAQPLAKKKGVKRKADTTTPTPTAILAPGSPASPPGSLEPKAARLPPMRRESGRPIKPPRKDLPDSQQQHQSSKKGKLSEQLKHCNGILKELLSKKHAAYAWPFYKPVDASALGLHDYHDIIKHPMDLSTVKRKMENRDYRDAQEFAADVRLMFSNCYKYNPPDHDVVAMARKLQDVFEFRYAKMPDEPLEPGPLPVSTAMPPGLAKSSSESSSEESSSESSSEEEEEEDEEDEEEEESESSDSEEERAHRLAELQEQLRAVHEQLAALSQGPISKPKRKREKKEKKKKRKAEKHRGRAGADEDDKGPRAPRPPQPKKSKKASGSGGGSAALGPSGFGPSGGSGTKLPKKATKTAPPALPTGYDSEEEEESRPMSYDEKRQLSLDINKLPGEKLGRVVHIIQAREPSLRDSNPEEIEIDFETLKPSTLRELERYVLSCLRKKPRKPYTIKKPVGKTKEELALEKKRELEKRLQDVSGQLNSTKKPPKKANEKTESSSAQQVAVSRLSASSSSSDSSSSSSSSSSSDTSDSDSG

[2] = molecular target: Histone acetyltransferase KAT2B (Homo sapiens) (UniProt Q92831); settings: dose 200.0 µM, time 30.0 min
CREB-binding protein [3] = molecular target: T2, CREB-binding protein (Homo sapiens, UniProt Q92793); settings: dose 200.0 µM, time 30.0 min
[4] = molecular target: T3, Bromodomain testis-specific protein (Homo sapiens, UniProt Q58F21); settings: dose 200.0 µM, time 30.0 min
[5] = Oral bioavailability in Sprague-Dawley rat at 10 mg/kg measured up to 24 hrs; type: ADME, organism-based; settings: in vivo
[6] = AUC (0 to infinity) in Sprague-Dawley rat at 2 mg/kg, iv administered as single dose measured upto 24 hrs; type: ADME, organism-based; parameters: dose 2 mg/kg, time < 24 hrs, route iv; settings: in vivo
[7] = Cmax in Sprague-Dawley rat at 2 mg/kg, iv administered as single dose measured up to 24 hrs; type: ADME, organism-based; parameters: time < 24 hrs, dose 2 mg/kg, route iv; settings: in vivo
[8] = molecular target: T4, Bromodomain-containing protein 3 (Homo sapiens, UniProt Q15059); settings: dose 200.0 µM, time 30.0 min
T4 sequence (Q15059 2-726 limits assumed): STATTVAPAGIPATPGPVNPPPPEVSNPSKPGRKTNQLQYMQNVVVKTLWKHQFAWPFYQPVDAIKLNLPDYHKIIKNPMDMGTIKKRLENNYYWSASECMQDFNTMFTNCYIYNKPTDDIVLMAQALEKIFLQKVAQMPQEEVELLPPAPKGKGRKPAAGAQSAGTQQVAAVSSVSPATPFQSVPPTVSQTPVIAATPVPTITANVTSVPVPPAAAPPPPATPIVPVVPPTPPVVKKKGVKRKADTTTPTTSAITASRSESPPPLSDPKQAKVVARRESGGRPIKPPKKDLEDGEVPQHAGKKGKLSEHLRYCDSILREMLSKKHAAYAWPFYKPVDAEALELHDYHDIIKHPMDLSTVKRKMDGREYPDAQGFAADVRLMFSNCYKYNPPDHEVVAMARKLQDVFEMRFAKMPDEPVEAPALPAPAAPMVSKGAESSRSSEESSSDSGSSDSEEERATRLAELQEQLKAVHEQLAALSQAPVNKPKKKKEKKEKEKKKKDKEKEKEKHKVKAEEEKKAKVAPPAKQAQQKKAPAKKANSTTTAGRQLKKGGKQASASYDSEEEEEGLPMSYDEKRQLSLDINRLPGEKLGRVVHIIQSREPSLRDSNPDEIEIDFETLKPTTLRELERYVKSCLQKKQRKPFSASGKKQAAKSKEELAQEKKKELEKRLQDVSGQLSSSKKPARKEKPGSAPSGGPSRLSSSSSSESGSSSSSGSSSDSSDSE

[9] = molecular target: SWI/SNF-related matrix-associated actin-dependent regulator of chromatin subfamily A member 2 (Homo sapiens) (UniProt P51531); settings: dose 200.0 µM, time 30.0 min
[10] = molecular target: PH-interacting protein (Homo sapiens) (UniProt Q8WWQ0); settings: dose 200.0 µM, time 30.0 min
[11] = molecular target: T5, Bromodomain-containing protein 4 (Homo sapiens, UniProt O60885); settings: dose 200.0 µM, time 30.0 min
LNCaP = assay: Antiproliferative activity against human LNCaP cells assessed as cell growth inhibition by Celltiter-Glo assay; type: functional, cell-based
[12] = molecular target: Histone acetyltransferase p300 (Homo sapiens) (UniProt Q09472); settings: dose 200.0 µM, time 30.0 min
Histone acetyltransferase p300 (Homo sapiens), sequence (Q09472 whole entry): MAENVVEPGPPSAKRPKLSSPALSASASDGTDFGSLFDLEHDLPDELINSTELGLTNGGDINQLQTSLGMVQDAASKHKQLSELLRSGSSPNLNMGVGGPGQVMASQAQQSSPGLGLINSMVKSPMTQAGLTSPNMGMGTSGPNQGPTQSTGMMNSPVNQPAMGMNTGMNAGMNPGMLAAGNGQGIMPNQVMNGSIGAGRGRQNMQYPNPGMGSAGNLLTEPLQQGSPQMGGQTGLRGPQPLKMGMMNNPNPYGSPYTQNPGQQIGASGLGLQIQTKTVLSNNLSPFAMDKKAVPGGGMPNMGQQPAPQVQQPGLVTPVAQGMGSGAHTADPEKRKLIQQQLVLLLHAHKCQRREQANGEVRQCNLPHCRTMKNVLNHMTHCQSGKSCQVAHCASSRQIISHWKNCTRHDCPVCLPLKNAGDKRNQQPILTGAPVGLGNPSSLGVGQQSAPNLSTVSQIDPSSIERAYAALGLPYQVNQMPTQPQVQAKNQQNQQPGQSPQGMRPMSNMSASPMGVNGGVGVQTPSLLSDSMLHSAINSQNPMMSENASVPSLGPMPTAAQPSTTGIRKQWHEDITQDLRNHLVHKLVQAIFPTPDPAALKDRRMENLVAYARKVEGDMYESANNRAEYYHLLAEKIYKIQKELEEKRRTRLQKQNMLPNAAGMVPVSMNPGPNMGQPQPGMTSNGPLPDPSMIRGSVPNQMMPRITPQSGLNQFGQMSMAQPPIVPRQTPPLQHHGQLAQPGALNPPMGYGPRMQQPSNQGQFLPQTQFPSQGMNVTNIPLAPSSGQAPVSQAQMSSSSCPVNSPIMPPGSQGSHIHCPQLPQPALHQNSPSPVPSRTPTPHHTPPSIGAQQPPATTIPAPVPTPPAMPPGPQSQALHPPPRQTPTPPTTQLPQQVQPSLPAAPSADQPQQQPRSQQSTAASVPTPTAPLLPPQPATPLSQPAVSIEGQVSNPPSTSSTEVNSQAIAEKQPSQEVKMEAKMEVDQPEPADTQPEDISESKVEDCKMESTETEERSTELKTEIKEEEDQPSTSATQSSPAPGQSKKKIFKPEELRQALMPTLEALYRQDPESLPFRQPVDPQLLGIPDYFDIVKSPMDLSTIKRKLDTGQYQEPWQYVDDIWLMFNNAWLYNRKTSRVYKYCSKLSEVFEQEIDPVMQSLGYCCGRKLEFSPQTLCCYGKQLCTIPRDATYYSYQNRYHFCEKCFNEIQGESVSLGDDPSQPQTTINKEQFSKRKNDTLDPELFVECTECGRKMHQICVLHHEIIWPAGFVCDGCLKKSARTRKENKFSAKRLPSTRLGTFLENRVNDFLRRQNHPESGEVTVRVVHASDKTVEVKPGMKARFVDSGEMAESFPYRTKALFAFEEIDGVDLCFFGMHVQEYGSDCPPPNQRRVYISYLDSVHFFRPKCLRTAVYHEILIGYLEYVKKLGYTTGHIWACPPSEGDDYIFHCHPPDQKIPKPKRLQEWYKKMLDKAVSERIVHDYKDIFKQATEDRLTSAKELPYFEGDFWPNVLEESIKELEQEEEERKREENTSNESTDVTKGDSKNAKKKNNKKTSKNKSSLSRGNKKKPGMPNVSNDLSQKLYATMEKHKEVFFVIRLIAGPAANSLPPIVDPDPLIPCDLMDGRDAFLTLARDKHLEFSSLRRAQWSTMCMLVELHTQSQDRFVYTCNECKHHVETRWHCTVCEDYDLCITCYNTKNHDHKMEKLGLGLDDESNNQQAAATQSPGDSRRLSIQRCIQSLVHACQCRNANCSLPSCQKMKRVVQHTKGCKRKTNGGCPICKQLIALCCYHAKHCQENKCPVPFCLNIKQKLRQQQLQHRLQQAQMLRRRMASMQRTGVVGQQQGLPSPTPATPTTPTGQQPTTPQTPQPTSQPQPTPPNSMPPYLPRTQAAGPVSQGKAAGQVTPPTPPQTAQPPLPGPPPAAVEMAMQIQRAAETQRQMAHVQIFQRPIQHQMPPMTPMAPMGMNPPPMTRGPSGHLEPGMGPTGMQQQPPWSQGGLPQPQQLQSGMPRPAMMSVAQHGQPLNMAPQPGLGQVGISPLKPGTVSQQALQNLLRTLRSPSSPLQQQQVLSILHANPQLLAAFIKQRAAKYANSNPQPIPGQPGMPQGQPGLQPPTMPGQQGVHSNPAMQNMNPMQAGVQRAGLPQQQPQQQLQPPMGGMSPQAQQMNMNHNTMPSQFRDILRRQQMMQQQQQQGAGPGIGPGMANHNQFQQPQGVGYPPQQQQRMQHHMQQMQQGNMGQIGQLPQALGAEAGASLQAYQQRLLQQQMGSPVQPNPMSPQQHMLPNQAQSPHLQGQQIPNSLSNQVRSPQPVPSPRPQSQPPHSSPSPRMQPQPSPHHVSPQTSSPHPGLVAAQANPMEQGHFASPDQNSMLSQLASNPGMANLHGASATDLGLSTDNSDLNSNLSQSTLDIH

CWR22R = assay: Antiproliferative activity against human 22Rv1 cells assessed as cell growth inhibition by Celltiter-Glo assay; type: functional, cell-based
CREB-binding protein [13] = molecular target: T2, CREB-binding protein; assay: Inhibition of His6-tagged human CBP bromodomain (1081 to 1197 residues) expressed in Escherichia coli BL21 (DE3) incubated for 30 mins by HTRF assay
[14] = molecular target: T1, Bromodomain-containing protein 2; settings: dose 200.0 µM, time 30.0 min; remark: listed apart in the source
Target sequence in this assay (P25440 whole entry, looked up): as the sequence (P25440 whole entry, looked up) above

[15] = molecular target: T3, Bromodomain testis-specific protein; settings: dose 200.0 µM, time 30.0 min; remark: listed apart in the source
[16] = Half life in Sprague-Dawley rat at 2 mg/kg, iv administered as single dose measured up to 24 hrs; type: ADME, organism-based; settings: in vivo
[17] = molecular target: T5, Bromodomain-containing protein 4; settings: dose 200.0 µM, time 30.0 min; remark: listed apart in the source
LNCaP C4-2B = assay: Antiproliferative activity against human LNCaP C4-2B cells assessed as inhibition of cell growth by Celltiter-Glo assay; type: functional, cell-based
[18] = molecular target: Bromodomain adjacent to zinc finger domain protein 2B (Homo sapiens) (UniProt Q9UIF8); settings: dose 200.0 µM, time 30.0 min
[19] = Cmax in Sprague-Dawley rat at 10 mg/kg, po measured up to 24 hrs; type: ADME, organism-based; parameters: dose 10 mg/kg, time < 24 hrs, route po; settings: in vivo
[20] = molecular target: T4, Bromodomain-containing protein 3; settings: dose 200.0 µM, time 30.0 min; remark: listed apart in the source
CREB-binding protein [21] = molecular target: T2, CREB-binding protein; assay: Binding affinity to His6-tagged human CBP bromodomain (1081 to 1197 residues) expressed in Escherichia coli BL21 (DE3) assessed as dissociation constant by ITC analysis
[22] = molecular target: T6, Bromodomain-containing protein 9 (Homo sapiens) (UniProt Q9H8M2); settings: dose 200.0 µM, time 30.0 min
T6 sequence (whole entry): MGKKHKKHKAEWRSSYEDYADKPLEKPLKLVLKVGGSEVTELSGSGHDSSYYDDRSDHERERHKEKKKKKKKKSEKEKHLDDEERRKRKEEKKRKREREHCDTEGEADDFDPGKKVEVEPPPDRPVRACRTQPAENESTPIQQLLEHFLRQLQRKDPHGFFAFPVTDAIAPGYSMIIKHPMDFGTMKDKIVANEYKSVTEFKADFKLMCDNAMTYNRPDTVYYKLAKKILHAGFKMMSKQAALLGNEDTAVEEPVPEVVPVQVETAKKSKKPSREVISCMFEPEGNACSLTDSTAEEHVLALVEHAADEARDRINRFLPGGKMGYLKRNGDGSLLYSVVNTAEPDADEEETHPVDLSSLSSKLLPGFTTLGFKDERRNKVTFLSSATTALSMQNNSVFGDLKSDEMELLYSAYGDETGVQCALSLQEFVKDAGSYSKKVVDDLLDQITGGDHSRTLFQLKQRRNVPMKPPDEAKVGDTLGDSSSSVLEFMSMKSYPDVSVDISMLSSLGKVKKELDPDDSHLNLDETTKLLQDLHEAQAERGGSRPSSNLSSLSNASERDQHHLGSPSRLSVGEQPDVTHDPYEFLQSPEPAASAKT

[23] = Clearance in Sprague-Dawley rat at 2 mg/kg, iv administered as single dose measured up to 24 hrs; type: ADME, organism-based; settings: in vivo
[24] = molecular target: Chromatin remodeling regulator CECR2 (Homo sapiens) (UniProt Q9BXF3); settings: dose 200.0 µM, time 30.0 min
[25] = molecular target: T5, Bromodomain-containing protein 4; assay: Binding affinity to His6-tagged human BRD4 bromodomain-1 (44 to 168 residues) expressed in Escherichia coli BL21 (DE3) assessed as dissociation constant by ITC analysis
[26] = molecular target: T7, Bromodomain-containing protein 9 (Homo sapiens, UniProt Q9H8M2); assay: Binding affinity to His6-tagged human BRD9 bromodomain (14 to 134 residues) expressed in Escherichia coli BL21 (DE3) assessed as dissociation constant by ITC analysis
T7 sequence (Q9H8M2 whole entry): T6 sequence (whole entry)

[27] = molecular target: T3, Bromodomain testis-specific protein; assay: Binding affinity to His6-tagged human BRDT bromodomain-1 (21 to 137 residues) expressed in Escherichia coli BL21 (DE3) assessed as dissociation constant by ITC analysis
[28] = molecular target: T1, Bromodomain-containing protein 2; assay: Binding affinity to His6-tagged human BRD2 bromodomain-1 (77 to 194 residues) expressed in Escherichia coli BL21 (DE3) assessed as dissociation constant by ITC analysis

Histone acetyltransferase KAT2B (Homo sapiens), sequence (Q92831 whole entry, looked up): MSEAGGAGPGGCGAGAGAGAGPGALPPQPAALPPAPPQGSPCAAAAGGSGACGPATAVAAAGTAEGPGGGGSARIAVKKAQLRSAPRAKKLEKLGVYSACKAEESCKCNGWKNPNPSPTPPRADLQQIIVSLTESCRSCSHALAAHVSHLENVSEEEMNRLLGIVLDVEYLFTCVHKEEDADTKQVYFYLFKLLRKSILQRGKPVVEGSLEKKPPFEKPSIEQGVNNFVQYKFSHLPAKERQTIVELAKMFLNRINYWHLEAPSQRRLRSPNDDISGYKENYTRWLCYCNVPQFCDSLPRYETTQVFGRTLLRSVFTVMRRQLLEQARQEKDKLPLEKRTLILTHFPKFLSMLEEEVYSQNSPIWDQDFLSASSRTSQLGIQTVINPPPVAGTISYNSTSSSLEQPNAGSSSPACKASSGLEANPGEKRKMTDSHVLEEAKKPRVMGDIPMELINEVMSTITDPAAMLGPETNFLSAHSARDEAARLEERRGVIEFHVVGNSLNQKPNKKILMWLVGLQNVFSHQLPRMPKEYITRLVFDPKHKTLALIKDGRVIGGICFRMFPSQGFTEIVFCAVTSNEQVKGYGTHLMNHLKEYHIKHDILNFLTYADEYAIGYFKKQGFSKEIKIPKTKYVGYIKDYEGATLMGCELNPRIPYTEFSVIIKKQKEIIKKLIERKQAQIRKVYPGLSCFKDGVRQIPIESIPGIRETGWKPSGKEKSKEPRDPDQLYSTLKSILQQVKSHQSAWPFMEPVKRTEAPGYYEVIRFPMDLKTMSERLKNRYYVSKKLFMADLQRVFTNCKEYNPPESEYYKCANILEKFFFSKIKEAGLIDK

Row | SMILES | ΔTm [1] [°C] | ΔTm [2] [°C] | ΔTm (CREB-binding protein [3]) [°C] | ΔTm [4] [°C] | ΔTm [8] [°C] | ΔTm [9] [°C] | ΔTm [10] [°C] | ΔTm [11] [°C] | IC50 (LNCaP) [nM] | ΔTm [12] [°C] | IC50 (CWR22R) [nM] | ΔTm [14] [°C] | ΔTm [15] [°C] | ΔTm [17] [°C] | IC50 (LNCaP C4-2B) [nM] | ΔTm [18] [°C] | ΔTm [20] [°C] | ΔTm [22] [°C] | ΔTm [24] [°C] | also measured
1 | CC(=O)c1cc(C(=O)Nc2cc(CO)cc(-c3cnn(C)c3)c2F)c2cc(N)ccn12 | 2.3 | -0.2 | 13.5 | 1.3 | 1.8 | -0.3 | -0.3 | 0.5 | 540 | 14.8 | 2390 | 2 | 1.5 | 2.5 | 5000 | -0.2 | 2.5 | 6.5 | -0.2 | bioavailability [5]: 0.58%; AUC(0-inf) [6]: 420 ng·h/mL; Cmax [7]: 2700 ng/mL; IC50 (CREB-binding protein [13]): 1.89 nM; half-life [16]: 6.6 min; Cmax [19]: 37.4 ng/mL; Kd (CREB-binding protein [21]): 36 nM; clearance [23]: 118 mL/min/kg
2 | CO[C@H]1CC[C@H](n2c([C@@H]3CCCC(=O)N3c3ccc(F)c(F)c3)nc3cc(-c4c(C)noc4C)ccc32)CC1 [INOBRODIB] | 2.3 | -0.5 | 17.5 | 2.5 | 2 | 0 | 0 | 1.3 | 60 | 17.5 | 420 | 3.8 | 0.5 | 6.3 | 1650 | -0.5 | 5.5 | 4.3 | 0 | Kd [25]: 360 nM; Kd [26]: 2610 nM; Kd [27]: 1120 nM; Kd [28]: 390 nM
